Source: publication PMC8744835, “Sterically Hindered Quaternary Phosphonium Salts (QPSs): Antimicrobial Activity and Hemolytic and Cytotoxic Properties” (International Journal of Molecular Sciences, 2021)

Legend:
[1] = test system: methicillin-resistant S. aureus MRSA-1; test: Antimicrobial activity, serial dilution technique in Mueller–Hinton Broth 2; type: cell-based, Staphylococcus aureus; conditions: - means non-active
Method in brief: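 Antimicrobial activity against methicillin-susceptible Staphylococcus aureus MRSA-1, a hospital isolate from a chronic tonsillitis patient that is resistant to fluoroquinolones and beta-lactams, was determined by serial dilution in Mueller–Hinton Broth 2. The bacterial load was 3.0 × 10^5 cfu/mL, incubation was at 37 °C, and growth was recorded every 24 h for 5 days.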

[2] = test system: methicillin-resistant S. aureus MRSA-2; test: as above; type: cell-based, Staphylococcus aureus; conditions: - means non-active; for Minimum Inhibitory Concentration (MIC), MRSA-2: MRSA-2 (resistant to beta-lactams)
Method in brief: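 Antimicrobial activity against methicillin-susceptible Staphylococcus aureus MRSA-2, a beta-lactam-resistant clinical isolate from a sinusitis patient at the Republican Clinical Hospital (Kazan), was assessed by serial dilution in Mueller–Hinton Broth 2. The inoculum was 3.0 × 10^5 cfu/mL. Cultures were incubated at 37 °C and read every 24 h for 5 days, in three repeat experiments.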

[3] = test system: Enterococcus faecalis ATCC 2921; test: as above; type: cell-based; conditions: average of three ± SD, - means non-active
Method in brief: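 Antibacterial activity against Enterococcus faecalis ATCC 2921 was assessed by serial dilution in Mueller–Hinton Broth 2 with a bacterial load of 3.0 × 10^5 cfu/mL. Cultures were incubated at 37 °C, with growth recorded every 24 h for 5 days, and the experiment was performed three times.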

[4] = test system: Pseudomonas aeruginosa ATCC 9027; test: as above; type: cell-based; conditions: average of three ± SD, - means non-active; for MBC / MIC: Pseudomonas aeruginosa, ATCC9027, Pa; for MBC: read-out: Minimum Bactericidal and Fungicidal Concentration (MBC, MFC), Pa; for MIC: read-out: Minimum Inhibitory Concentration (MIC), Pa
[5] = test system: Staphylococcus aureus ATCC 6538P FDA 209P; test: as above; type: cell-based; conditions: average of three ± SD, - means non-active; for MBC: read-out: Minimum Bactericidal and Fungicidal Concentration (MBC, MFC), Sa
Method in brief: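 Using a broth serial dilution method in Mueller–Hinton Broth 2, S. aureus ATCC 6538P FDA 209P (3.0 × 10^5 cfu/mL) was exposed to compounds at 37 °C and observed daily over 5 days. MIC was the lowest concentration preventing growth; bacteriostatic absence of growth was also noted, with three replicate experiments.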

[6] = test system: Bacillus cereus ATCC 10702 NCTC 8035; test: as above; type: cell-based; conditions: average of three ± SD, - means non-active; for MBC: Bacillus cereus, Bc, read-out: Minimum Bactericidal and Fungicidal Concentration (MBC, MFC), Bc
Method in brief: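 Compounds were serially diluted in Mueller–Hinton Broth 2 and inoculated with the Gram-positive strain Bacillus cereus ATCC 10702 NCTC 8035 at 3.0 × 10^5 cfu/mL, then incubated at 37 °C. Observations were taken every 24 h over 5 days in three repeat experiments. The MIC was the lowest concentration that stopped growth, with bacteriostatic absence of growth also noted.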

[7] = test system: Escherichia coli ATCC 25922; test: as above; type: cell-based; conditions: average of three ± SD, - means non-active; for MIC: Escherichia coli, ATCC25922, Ec, read-out: Minimum Inhibitory Concentration (MIC), Ec
Method in brief: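 Growth inhibition is scored in Mueller–Hinton Broth 2 dilution series seeded with 3.0 × 10^5 cfu/mL and held at 37 °C for up to 5 days. Values reported are MICs, the lowest concentration without growth.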

[8] = test system: Candida albicans ATCC 10231; test: Fungicidal activity, serial dilution technique; type: cell-based; conditions: average of three ± SD, - means non-active; for MBC: read-out: Minimum Bactericidal and Fungicidal Concentration (MBC, MFC), Ca
Method in brief: (§1)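 Broth serial dilution in Mueller–Hinton Broth 2 at 3.0 × 10^5 cfu/mL, incubated at 37 °C with growth scored every 24 h for 5 days. MIC taken as lowest concentration inhibiting growth; three repeats.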

[9] = test system: Trichophyton mentagrophytes var. gypseum 1773; test: Fungicidal activity, serial dilution technique; type: cell-based; conditions: Tm, average of three ± SD, - means non-active; for MBC / MIC: Trichophyton mentagrophytes; for MBC: read-out: Minimum Bactericidal and Fungicidal Concentration (MBC, MFC), Tm; for MIC: read-out: Minimum Inhibitory Concentration (MIC), Tm
Method in brief: as §1

[10] = test system: Escherichia coli ATCC 25922; test: Antimicrobial activity, serial dilution technique in Mueller–Hinton Broth 2; type: cell-based; conditions: average of three ± SD, - means non-active; for MBC: Escherichia coli, ATCC25922, Ec, read-out: Minimum Bactericidal and Fungicidal Concentration (MBC, MFC), Ec
[11] = MRSA-1 (resistant to fluoroquinolones and beta-lactams)
[12] = Candida albicans, ATCC10231, Ca

SMILES	Minimum Inhibitory Concentration (MIC), MRSA-1 [1, 11] [µg/mL]	Minimum Bactericidal and Fungicidal Concentration (MBC, MFC), MRSA-1 ([1]; MRSA-1) [µg/mL]	Minimum Inhibitory Concentration (MIC), MRSA-2 [2] [µg/mL]	Minimum Bactericidal and Fungicidal Concentration (MBC, MFC), MRSA-2 ([2]; MRSA-2) [µg/mL]	Minimum Bactericidal and Fungicidal Concentration (MBC, MFC), Ef [3] [µg/mL]	Minimum Inhibitory Concentration (MIC), Ef [3] [µg/mL]	MBC [4] [µg/mL]	MIC [4] [µg/mL]	MBC ([5]; Staphylococcus aureus, Sa) [µg/mL]	Minimum Inhibitory Concentration (MIC), Sa [5] [µg/mL]	MBC [6] [µg/mL]	Minimum Inhibitory Concentration (MIC), Bc [6] [µg/mL]	MIC [7] [µg/mL]	Minimum Bactericidal and Fungicidal Concentration (MBC, MFC), Sa [5] [µg/mL]	Minimum Bactericidal and Fungicidal Concentration (MBC, MFC), Ca [8] [µg/mL]	Minimum Inhibitory Concentration (MIC), Ca [8] [µg/mL]	Minimum Bactericidal and Fungicidal Concentration (MBC, MFC), Ec [10] [µg/mL]	Minimum Inhibitory Concentration (MIC), Pa ([4]; Pa) [µg/mL]	Minimum Bactericidal and Fungicidal Concentration (MBC, MFC), Tm [9] [µg/mL]	Minimum Inhibitory Concentration (MIC), Tm [9] [µg/mL]	further results
CCCCCCCCCCCCCCCCC[P+](C(C)(C)C)(C(C)(C)C)C(C)(C)C [Compound 17a]	0.9 ± 0.06	0.9 ± 0.07	0.9 ± 0.07	0.9 ± 0.06	1.9 ± 0.1	1.9 ± 0.1	7.8 ± 0.7	7.8 ± 0.5	0.5 ± 0.03	0.2 ± 0.01	15.6 ± 1.2	0.9 ± 0.07	15.6 ± 1.2	–	–	–	–	–	–	–	MBC [8, 12]: 3.9 ± 0.2 µg/mL; MIC ([8]; Candida albicans, ATCC10231, Ca, read-out: Minimum Inhibitory Concentration (MIC), Ca): 1.9 ± 0.1 µg/mL; MBC [9]: 125 ± 10 µg/mL; MIC [9]: 125 ± 10 µg/mL; MBC [10]: 15.6 ± 1.3 µg/mL
CCCCCCCCCCCCCCCCCC[P+](C(C)(C)C)(C(C)(C)C)C(C)(C)C [Compound 18a]	0.9 ± 0.07	–	0.9 ± 0.07	0.9 ± 0.07	0.9 ± 0.07	0.9 ± 0.07	62.5 ± 5.6	15.6 ± 1.2	–	0.9 ± 0.08	–	7.8 ± 0.6	15.6 ± 1.3	0.9 ± 0.07	3.9 ± 0.2	1.9 ± 0.1	15.6 ± 1.1	–	–	–	MBC ([1]; Staphylococcus aureus, MRSA, MRSA-1, read-out: Minimum Bactericidal and Fungicidal Concentration (MBC, MFC), MRSA-1): 15.6 ± 1.2 µg/mL; Minimum Bactericidal and Fungicidal Concentration (MBC, MFC), Bc [6]: 31.3 ± 2.5 µg/mL; MBC [9]: 125 ± 9 µg/mL; MIC [9]: 125 ± 11 µg/mL
CCCCCCCCCCCCCCCCCC[P+](C(C)(C)C)(C(C)(C)C)C(C)(C)C [Compound 18b]	7.8 ± 0.6	15.6 ± 1.2	3.9 ± 0.2	3.9 ± 0.3	3.9 ± 0.2	1.9 ± 0.1	–	–	–	1.9 ± 0.1	–	31.3 ± 2.2	–	3.9 ± 0.2	15.6 ± 1.2	7.8 ± 0.7	62.5 ± 5.4	15.6 ± 1.3	250 ± 19	250 ± 19	Minimum Bactericidal and Fungicidal Concentration (MBC, MFC), Pa ([4]; Pa): 31.3 ± 2.5 µg/mL; Minimum Bactericidal and Fungicidal Concentration (MBC, MFC), Bc [6]: 125 ± 11 µg/mL; Minimum Inhibitory Concentration (MIC), Ec [7]: 15.6 ± 1.3 µg/mL
CCCCCCCCCCCCCCCCCCCC[P+](C(C)(C)C)(C(C)(C)C)C(C)(C)C [Compound 20a]	–	31.3 ± 2.7	1.9 ± 0.1	–	–	–	125 ± 11	–	3.9 ± 0.2	–	31.3 ± 2.6	15.6 ± 1.3	62.5 ± 5.5	–	–	31.3 ± 2.5	–	31.3 ± 2.4	31.3 ± 2.5	31.3 ± 2.3	MIC ([1]; Staphylococcus aureus, MRSA, MRSA-1 (resistant to fluoroquinolones and beta-lactams), read-out: Minimum Inhibitory Concentration (MIC), MRSA-1): 7.8 ± 0.6 µg/mL; MBC ([2]; Staphylococcus aureus, MRSA, MRSA-2, read-out: Minimum Bactericidal and Fungicidal Concentration (MBC, MFC), MRSA-2): 15.6 ± 1.2 µg/mL; MBC ([3]; Enterococcus faecalis, ATCC2921, Ef, read-out: Minimum Bactericidal and Fungicidal Concentration (MBC, MFC), Ef): 7.8 ± 0.6 µg/mL; MIC ([3]; Enterococcus faecalis, ATCC2921, Ef, read-out: Minimum Inhibitory Concentration (MIC), Ef): 3.9 ± 0.2 µg/mL; MIC ([5]; Staphylococcus aureus, Sa, read-out: Minimum Inhibitory Concentration (MIC), Sa): 3.9 ± 0.2 µg/mL; MBC [8, 12]: 62.5 ± 5.7 µg/mL; MBC [10]: 62.5 ± 5.5 µg/mL
CCCCCCCCCCCCCCCCCCCC[P+](C(C)(C)C)(C(C)(C)C)C(C)(C)C [Compound 20b]	15.6 ± 1.3	15.6 ± 1.2	7.8 ± 0.6	7.8 ± 0.7	15.6 ± 1.3	7.8 ± 0.6	–	–	–	3.9 ± 0.2	–	62.5 ± 5.5	–	3.9 ± 0.3	31.3 ± 2.1	15.6 ± 1.3	62.5 ± 5.5	125 ± 11	250 ± 18	250 ± 18	Minimum Inhibitory Concentration (MIC), Ec [7]: 62.5 ± 5.7 µg/mL
